Data on 3 substances can be found in article PMC4201869 (Neuroendocrinology, 2014).

Test [1] deals with GnRH neurons. Type of test: cell-based, rat.
Test [2] deals with GnRH neurons. As to conditions: adult male mouse; cited from earlier work.
Test [3] concerns GnRH neurons. Kind of test: Spontaneous action potential firing, current clamp, slices from female rats. As to conditions: 7-10 min after addition. The class given is cell-based, rat.
In test [4] the test system is GnRH neurons. The experiment in a line: Current-voltage. Type of test: cell-based, rat. As to conditions: 100 nM Kp-10, compared to control; representative recording (Figure 5B).
For test [5], the system named is GnRH neurons. As to conditions: mice and guinea pigs; cited from earlier work.
The subject of test [6] is GnRH neurons.
Another test deals with Kiss1R (Homo sapiens) (UniProt Q969F8). As to conditions: cited from earlier work.

Several values for one entry are separate records, joined by “and”; a condition that tells them apart may be missing. Identical values can stand only once. Where no end group is shown, it is not given here.

Chain of Kp-10 (Q15726 whole entry, looked up): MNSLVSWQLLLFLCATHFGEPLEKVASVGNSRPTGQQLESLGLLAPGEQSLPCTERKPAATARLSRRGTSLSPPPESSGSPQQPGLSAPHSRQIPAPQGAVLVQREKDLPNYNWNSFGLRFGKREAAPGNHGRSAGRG
Chain of UniProt Q969F8 (Q969F8 whole entry): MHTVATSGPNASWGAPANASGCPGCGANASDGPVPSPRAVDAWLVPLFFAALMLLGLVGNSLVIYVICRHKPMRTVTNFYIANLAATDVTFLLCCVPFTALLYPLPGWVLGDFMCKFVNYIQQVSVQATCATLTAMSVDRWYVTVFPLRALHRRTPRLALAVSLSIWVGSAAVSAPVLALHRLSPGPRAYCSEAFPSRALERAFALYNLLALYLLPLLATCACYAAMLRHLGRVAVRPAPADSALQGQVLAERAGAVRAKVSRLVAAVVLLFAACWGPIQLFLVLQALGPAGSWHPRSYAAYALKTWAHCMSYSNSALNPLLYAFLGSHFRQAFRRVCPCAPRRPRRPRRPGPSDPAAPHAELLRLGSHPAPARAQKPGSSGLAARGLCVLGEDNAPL

“CART: Cocaine and Amphetamine Regulated Transcript (55–102, rat), American Peptide Company, excitatory neuropeptide (IPIYEKKYGQVPMCDAGEQCAVRKGARIGKLCDCPRGTSCNSFLLKCL; ends and bridges not checked; cysteine pairing not given here; UniProt P49192 82-129, looked up, fragment)”: the “CART-induced firing and depolarization, in words” value with GnRH neurons [1] is given as “persisted long after washout”. In addition, the “GnRH neurons responding to CART” value in the test with GnRH neurons [1] (30 nM CART, 8 out of 12 cells from 5 animals, without TTX) is recorded as 60–70%. For the same substance, the “membrane depolarization by CART alone under TTX” value with GnRH neurons [1] (30 nM CART, TTX, n = 12 cells from 6 animals, mean ± SEM) was 7.3 ± 0.6 mV and 7.3 ± 0.64 mV. Also, in the test with GnRH neurons [1] (30 nM CART, without TTX, p<0.0001), the “membrane depolarization by CART” value came out at 7.8 ± 0.1 mV.

With “YNWNSFGLRY-NH2 [Kp-10, Mouse KiSS-1 (110–119)-NH2]”, in the test on GnRH neurons [2], the “GnRH neurons activated by kisspeptin” value is “about 90%”. Further, the “effect on action potential firing, in words” value with GnRH neurons [3] was “stimulated the cell”. Moreover, in the test with GnRH neurons [4], the “reversal potential of kisspeptin-induced current” value is −110 mV. In addition, the “reversal potential of kisspeptin-induced currents” value in the test on GnRH neurons [5] was −100 to −110 mV. The “depolarization by submaximal dose” value in the test with GnRH neurons [6] (10 nM Kp-10, TTX, mean ± SEM) is reported as 14.6 ± 2.3 mV. In the test on GnRH neurons [6] (100 nM Kp-10, TTX, mean ± SEM), this substance yielded a maximum depolarization of 20.2 ± 1.2 mV. Besides, the “depolarization, in words” value in the test on GnRH neurons [6] (current clamp, TTX 1.0 μM, female rats) is reported as “very prolonged, concentration-dependent depolarization of GnRH neurons that persisted long after washout of the agonist”. For the same substance, in the test on GnRH neurons [6] (female rats, current clamp, TTX), the “cells responding to kisspeptin” value is given as “Approximately 90%”.

A word on the Kd: it is the constant that tells how readily two partners part at equilibrium. As to Kp-10 (from UniProt Q15726), the equilibrium dissociation constant (Kd) with Kiss1R (Homo sapiens) was 2.7 nM.
